Source: EP0516186A2, “Nucleosides and nucleoside analogues, pharmaceutical composition and processes for the preparation of the compounds” (priority 1987, dated 1988)

Legend:
Assay type in all cases: cell-based
[1] = Cellular toxicity in F5000 cells (cell multiplication); details: F5000 human embryo cells, number of cells after 48 hrs; 50 % inhibition of cell multiplication; read-out: TC₅₀(µM) F5000
Procedure: (§1) Test II. Cellular toxicity
(§2) F5000 cells, which are human embryo cells, 1x10⁵ cells per plate, are incubated in Eagle's minimal essential medium, supplemented with Earle's salts, non-essential amino acids, 10 % fetal calf serum, 10 mM hepes, 70 mg/l penicillin and 100 mg/l streptomycin, in absence or presence of test compounds. The number of cells per plate is determined after 48 hrs. Cells incubated in absence of test compounds underwent one cell division cycle. The results are given as TC₅₀, which is the concentration of a compound which gives 50 % inhibition of cell multiplication.

HIV (HTLV-IIIB) = test: Effect on HIV in H9 cells (frequency of HIV antigen containing cells, immunofluorescence); details: Human immunodeficiency virus 1; H9 cells exposed to HIV (HTLV-IIIB), incubated 6 - 7 days; read-out: Concentration (µM) for 50 % inhibition (IC₅₀) of human immuno deficiency virus multiplication in cell culture
Procedure: Test I. Effect of compounds of the formula I on HIV in H9 cells
Materials and methods: HIV infection of H9 cells
H9 cells, 10⁵ cells per well on a 24 well plate, suspended in 2 ml RPMI-medium containing 10 % fetal calf serum, 100 µg/ml penicillin, 10 µg/ml streptomycin sulfate and 2 µg/ml polybrene are exposed to HIV (HTLV-IIIB) and different concentrations of the test compounds. The plates are incubated at 37°C in 5 % CO₂ for 6 - 7 days. The contents in each well is then homogenized with a pipette and transferred to a centrifuge tube. After centrifugation for 10 min at 1500 rpm the supernatent is removed and the cell pellet is analyzed by fixing in methanol on glass plates. Human HIV positive serum diluted 1:80 or 1:160 is added and incubated for 30 min at 37°. The plate is then washed with phosphate-buffered saline (PBS) containing Ca²⁺ and Mg²⁺. Sheep antihuman conjugate (FITC) is added and after a new incubation the plate is again washed with PBS. Contrast staining is done with Evans blue and after drying the frequency of HIV antigen containing cells is determined in a microscope.

[2] = Cellular toxicity in H9 cells (cell multiplication); details: human, number of cells after 48 hrs, 50 % inhibition of cell multiplication, read-out: TC₅₀(µM) H9
Procedure: as §1
H₉ cells, 2x10⁷ cells per plate, are incubated in RPMI-1640 medium containing 10 % fetal calf serum, 70 mg/l penicillin, 100 mg/l streptomycin and 10 mM hepes, in absence or precence of test compounds. The number of cells per plate is determined after 48 hrs. Cells incubated in absence of test compound then underwent two cell division cycles.
as §2

Structure (SMILES) | CC50 at 48 h [1] | IC50 (HIV (HTLV-IIIB)) | CC50 at 48 h [2]
CCc1cn([C@@H]2C[C@H](O)[C@@H](CO)O2)c(=O)[nH]c1=O [VIP 289, 1-(2-deoxy-α-D-ribofuranosyl)-5-ethyluracil] | 1000 µM | 10 µM | –
CCCc1cn([C@@H]2C[C@H](F)[C@@H](CO)O2)c(=O)[nH]c1=O [VSA 409, 1-(3-F-2,3-dideoxy-α-D-ribofuranosyl)-5-propyluracil] | – | 2.5 µM | –
Cc1cn([C@@H]2C[C@H](F)[C@@H](CO)O2)c(=O)[nH]c1=O [VSA 419, 1-(3-F-2,3-dideoxy-α-D-ribofuranosyl)thymine] | 250 µM | – | –
CCc1cn([C@@H]2C[C@H](F)[C@@H](CO)O2)c(=O)[nH]c1=O [VSA 411, 1-(3-F-2,3-dideoxy-α-D-ribofuranosyl)-5-ethyluracil] | 500 µM | 0.1 µM | 400 µM
